Results from patent publication US20230145868A1, “UREA INHIBITORS OF MICRO-RNA” (Board of Regents, The University of Texas System, priority 2020, published 2023).

Assays:
miR-10b [1] = assay: Luciferase reporter assay of miR-10b inhibition, MDA-MB-231 cells; assay type: cell-based; conditions: Homo sapiens, MDA-MB-231, 48 h
Text: (§1) To identify miR-10b inhibitors, a luciferase reporter system was designed with complementary oligonucleotides for miR-10b.This luciferase reporter would repress Renilla luciferase signal in the presence of a functional mature miR-10b. However, in the presence of a small molecule that can inhibit mature miR-10b expression or affect its downstream function, the luciferase expression is restored again.
(§2) The PsiCHECK™-2 luciferase reporter vector was acquired from Promega™, Complementary oligonucleotides for hsa-miR-10b were designed based on the mature miRNA sequence and obtained from Thermo Fisher Scientific. In the design of the microRNA target sequence, several base pairs were added to have two different restriction sites recognizable by the enzyme SgfI at one side, and PmeI on the other (present in the vector as well). In addition, the insert was designed with a restriction site for SacI enzyme in order to have an additional site to digest the vector when monitoring colonies for the presence/absence of the insert. The designed oligonucleotides were annealed as follows: Complementary strands were mixed at a 1:1 molar ratio in a micro centrifuge tube. The mixture was diluted to a final concentration of 1 pmol/μl with a buffer solution of 10 mM Tris, 1 mM EDTA, and 50 mM NaCl (pH 8.0). Mixes were incubated at 95° C. for 5 min, and then the heat was reduced gradually for 70 min, until reaching 4° C. The annealed oligonucleotides were digested along with the PsiCHECK™2 vector with SgfI and PmeI and ligated at the 3′-UTR (downstream) of the Renilla luciferase reporter gene in the PsiCHECK™-2vector. Insert sequences were further confirmed in two ways: enzymatic digestion and sequencing.
(§3) MCF7 cells were seeded 24 h prior to transfection in 96 well plates (2.0×10^4 cells/well). For testing the sensitivity of the assay, antagomiRs and pre-miRs against miR-10b were used at a final concentration of 100 nM. For testing small molecule miRNA inhibitors, the compounds of interest were added to a final concentration of 10 μM. The assay was done in MCF7 or MDA-MB-231 cells at approximately 60% confluence using Lipofectamine in Opti-Mem media with the final vector concentration of 250 ng/mL. All transfections were performed in triplicate for statistical analysis. The cells were incubated at 37° C. for 6 h, followed by replacement of the transfected media with fresh media. After 48 h incubation, the media was removed, and cells were lysed and assayed with a Dual Luciferase Assay Kit (Promega) using a Vi-Tech luminometer. The ratio of Renilla to firefly luciferase expression was calculated for each of the triplicates.

miR-10b [2] = assay: Luciferase reporter assay of miR-10b inhibition, MCF7 cells; assay type: cell-based; conditions: Homo sapiens, MCF7, 48 h
Text: as §1, §2, §3

[3] = Table 5, MDA-MB-231, 10 μM compound, vs negative control (DMSO), mean of triplicate, read-out: n-fold increase in luciferase expression, Mean
[4] = Table 5, MDA-MB-231, 10 μM compound, vs negative control (DMSO), replicate #1, read-out: n-fold increase in luciferase expression, #1
[5] = Table 5, MDA-MB-231, 10 μM compound, vs negative control (DMSO), replicate #2, read-out: n-fold increase in luciferase expression, #2
[6] = Table 5, MDA-MB-231, 10 μM compound, vs negative control (DMSO), replicate #3, read-out: n-fold increase in luciferase expression, #3
[7] = Table 7, MDA-MB-231, second biological replicant, 10 μM compound, mean of triplicate, read-out: n-fold increase in luciferase expression, Mean
[8] = Table 7, MDA-MB-231, second biological replicant, 10 μM compound, replicate #1, read-out: n-fold increase in luciferase expression, #1
[9] = Table 7, MDA-MB-231, second biological replicant, 10 μM compound, replicate #2, read-out: n-fold increase in luciferase expression, #2
[10] = Table 7, MDA-MB-231, second biological replicant, 10 μM compound, replicate #3, read-out: n-fold increase in luciferase expression, #3
[11] = Table 6, MCF7, second biological replicant, 10 μM compound, mean of triplicate, read-out: n-fold increase in luciferase expression, Mean
[12] = Table 6, MCF7, second biological replicant, 10 μM compound, replicate #1, read-out: n-fold increase in luciferase expression, #1
[13] = Table 6, MCF7, second biological replicant, 10 μM compound, replicate #2, read-out: n-fold increase in luciferase expression, #2
[14] = Table 6, MCF7, second biological replicant, 10 μM compound, replicate #3, read-out: n-fold increase in luciferase expression, #3
[15] = Table 4, MCF7, 10 μM compound, vs negative control (DMSO), mean of triplicate, read-out: n-fold increase in luciferase expression, Mean
[16] = Table 4, MCF7, 10 μM compound, vs negative control (DMSO), replicate #1, read-out: n-fold increase in luciferase expression, #1
[17] = Table 4, MCF7, 10 μM compound, vs negative control (DMSO), replicate #2, read-out: n-fold increase in luciferase expression, #2
[18] = Table 4, MCF7, 10 μM compound, vs negative control (DMSO), replicate #3, read-out: n-fold increase in luciferase expression, #3

Compound | fold induction at 10 µM (miR-10b [1]; [3]) | fold induction at 10 µM (miR-10b [1]; [4]) | fold induction at 10 µM (miR-10b [1]; [5]) | fold induction at 10 µM (miR-10b [1]; [6]) | fold induction at 10 µM (miR-10b [1]; [7]) | fold induction at 10 µM (miR-10b [1]; [8]) | fold induction at 10 µM (miR-10b [1]; [9]) | fold induction at 10 µM (miR-10b [1]; [10]) | fold induction at 10 µM (miR-10b [2]; Table 3, MCF7, 10 μM compound, vs negative control (DMSO), mean of triplicate, read-out: n-fold increase in luciferase expression, Mean) | fold induction at 10 µM (miR-10b [2]; Table 3, MCF7, 10 μM compound, vs negative control (DMSO), replicate #1, read-out: n-fold increase in luciferase expression, #1) | fold induction at 10 µM (miR-10b [2]; Table 3, MCF7, 10 μM compound, vs negative control (DMSO), replicate #2, read-out: n-fold increase in luciferase expression, #2) | fold induction at 10 µM (miR-10b [2]; Table 3, MCF7, 10 μM compound, vs negative control (DMSO), replicate #3, read-out: n-fold increase in luciferase expression, #3) | fold induction at 10 µM (miR-10b [2]; [11]) | fold induction at 10 µM (miR-10b [2]; [12]) | fold induction at 10 µM (miR-10b [2]; [13]) | fold induction at 10 µM (miR-10b [2]; [14]) | fold induction at 10 µM (miR-10b [2]; [15]) | fold induction at 10 µM (miR-10b [2]; [16]) | fold induction at 10 µM (miR-10b [2]; [17]) | fold induction at 10 µM (miR-10b [2]; [18])
Cc1ccc(F)c(NC(=O)Nc2ccc(-c3cccc4[nH]ncc34)cc2)c1 [Example 3, 1-(4-(1H-indazol-4-yl)phenyl)-3-(2-fluoro-5-methylphenyl)urea] | 0.46 | 0.423 | 0.643 | 0.312 | 0.17 | 0.193 | 0.149 | 0.163 | 0.26 | 0.238 | 0.246 | 0.292 | 0.18 | 0.257 | 0.176 | 0.117 | – | – | – | –
Cc1ccc(F)c(NC(=O)Nc2ccc(-c3cccc4c3NC(=O)C4)cc2)c1 [Example 7, 1-(2-fluoro-5-methylphenyl)-3-(4-(2-oxoindolin-7-yl)phenyl)urea] | 1.05 | 1.01 | 1.09 | 1.05 | 1.19 | 1.16 | 1.31 | 1.11 | – | – | – | – | 1.25 | 1.86 | 0.957 | 0.935 | 2.41 | 1.34 | 5.06 | 0.822
Cc1ccc(F)c(NC(=O)Nc2ccc(-c3ccccn3)cc2)c1 [Example 8, 1-(2-fluoro-5-methylphenyl)-3-(4-(pyridin-2-yl)phenyl)urea] | 0.78 | 0.566 | 0.991 | 0.793 | 1.15 | 1.39 | 1 | 1.05 | – | – | – | – | 1.24 | 1.82 | 1.04 | 0.857 | 3.92 | 4.6 | 6.07 | 1.08
Nc1n[nH]c2cccc(-c3ccc(NC(=O)Nc4ccncc4)cc3)c12 [Example 9, 1-(4-(3-amino-1H-indazol-4-yl)phenyl)-3-(pyridin-4-yl)urea] | 1.41 | 1.14 | 2.05 | 1.05 | 1.56 | 1.39 | 1.61 | 1.67 | – | – | – | – | 1.29 | 2.17 | 0.859 | 0.84 | 2.11 | 0.94 | 4.2 | 1.2
